{
  "source": "patent US20170128518A1",
  "about": "“METHODS AND MATERIALS FOR IDENTIFYING AND TREATING MAMMALS RESISTANT TO PROTEASOME INHIBITOR TREATMENTS” (Mayo Foundation for Medical Education and Research, priority 2014, published 2017)",
  "key": {"[1]": {"tested_on": "NF-κB reporter in HEK293 cells expressing MYD88 L265P", "experiment": "NF-κB luciferase reporter assay", "type": "cell-based, human", "conditions": "24 hours; 0.5 μmol/l", "description": "HEK293 cells expressing MYD88 L265P were generated as described elsewhere (Ansell et al., Blood Cancer J, 4:e183, 2014). Cells were transiently transfected with 0.5 ng Renilla and 0.25 μg of a pNFκB-luciferase reporter plasmid/1.0×10^6 cells. b-AP15 was added to each well at the indicated doses; after 24 hours, luciferase activity was measured in cell extracts and normalized against Renilla with the Dual Luciferase Kit (Promega, Madison, Wis.)."}, "[2]": {"tested_on": "WM cell lines (BCWM.1, BCWM.1/BR, RPCI-WM1, RPCI-WM/BR)", "experiment": "NanoString nCounter gene expression profiling", "type": "cell-based, human", "conditions": "50 nmol/l (WT) or 100 nmol/l (BR), 24 hours", "description": "FIGS. 14A and 14B are diagrams depicting genes altered in b-AP15 treated WM cells. BCWM.1 and RPCI-WM1 were treated with b-AP15 (50 nmol/l), and BR clones were treated with 100 nmol/1 of the DUB inhibitor for 24 hours, followed by collection of RNA for profiling using the NanoString nCounter assay. FIG. 14A is an intersect analysis in which treated (Tx) cell lines were first compared to their untreated counterparts and then against one another to delineate which genes were altered in the same orientation across all four cell lines tested. FIG. 14B is a diagram of an IPA network analysis, depicting the relationship between the 36 genes and illustrating the interaction and relative expression of these genes. The darkness of the node color denotes the degree of differential gene expression as compared to baseline.\nTotal RNA from four WM cell lines (BCWM.1, BCWM.1/BR, RPCI-WM1 and RPCI-WM/BR) were prepared using Exiqon miRCURY RNA isolation kit (Exiqon, Woburn, Mass. USA) following the manufacturer's instructions. RNA samples were quantitated using a ND-1000 spectrophotometer (NanoDrop) and evaluated for degradation using a 2100 Bioanalyzer (Agilent Technologies, Santa Clara, Calif., USA).\nThe NanoString nCounter (NanoString, Seattle, Wash.) assay was used for mRNA quantification and expression in WM cells that were treated with b-AP15, as described elsewhere (Geiss et al., Nat Biotechnol 26:317-25, 2008; and Paulus et al., Brit J Haematol 164:352-65, 2014). Briefly, a library is constructed with two sequence-specific probes for the gene of interest. Unique pairs of 3′ reporter and 5′ capture probes are developed to distinguish transcripts for the gene of interest using a color-based barcoding system. The capture probe contains a base pair sequence that is complementary to the target mRNA and linked to a biotin affinity tag, which binds the mRNA of interest. The reporter probe also is also designed to be complementary to the target mRNA, contains a base sequence that is linked to an RNA-based color-coded molecular tag that provides a signal for detection. Using this method, a distinct color code is digitally generated for each gene of interest. In our experiments, all probes were mixed together with total RNA (100 ng from each sample) in a single hybridization reaction for 12 hours at 65° C. in solution. Using the nCounter Prep Station, each probe-mRNA complex was captured post-hybridization onto a streptavidin coated surface, aligned and imaged. Each sample was scanned for 600 FOV on the nCounter Digital Analyzer. As each target mRNA is designated by its unique color code, the level of expression was quantified by counting the number of codes for each molecule. Subsequent normalization of the raw data to internal controls provided by the manufacturer was performed using the nSolver Analysis software v1.1. Data was extracted using the nCounter RCC Collector; based on the positive and negative controls, a cutoff of 20 was used to filter out transcript signals that registered at levels of background noise.\nStatistical interpretation and data visualization (heat map) was conducted using Multi Experiment Viewer (MeV) from The Institute for Genomic Research (TIGR) (Saeed et al., Methods Enzymol 411:134-193, 2006; and Saeed et al., Biotechniques 34:374-378, 2003). Using the normalized data that was exported from nCounter RCC Collector, an average of mRNA transcript probe values was taken for each cell line (three biological replicates each) representing controls (untreated) and drug-treated samples, a tab-delimited text file was generated in Microsoft Excel and uploaded into MeV. Genes were log-2 transformed and mean centered. Bi-dimensional, average-linkage, unsupervised hierarchical clustering analysis was applied to find the relationships between samples and genes using the Pearson correlation coefficient."}},
  "note": "“Also recorded” adds a separate entry of the source.",
  "data": [
    {"smiles": "C=CC(=O)N1C/C(=C\\c2ccc([N+](=O)[O-])cc2)C(=O)/C(=C/c2ccc([N+](=O)[O-])cc2)C1", "note": "[b-AP15]", "values": [
      {"measurement": "NF-κB luciferase reporter activity", "setting": "[1]", "result": "significantly reduced; also recorded: significant reduction"},
      {"measurement": "Average fold change, AKT2", "setting": "[2]", "result": "−2.812", "unit": "fold"},
      {"measurement": "Average fold change, BIRC5", "setting": "[2]", "result": "−2.209", "unit": "fold"},
      {"measurement": "Average fold change, BMI1", "setting": "[2]", "result": "−3.09", "unit": "fold"},
      {"measurement": "Average fold change, CASP2", "setting": "[2]", "result": "−3.679", "unit": "fold"},
      {"measurement": "Average fold change, CCNA2", "setting": "[2]", "result": "−5.841", "unit": "fold"},
      {"measurement": "Average fold change, CCND2", "setting": "[2]", "result": "−3", "unit": "fold"},
      {"measurement": "Average fold change, CCNE1", "setting": "[2]", "result": "−4.193", "unit": "fold"},
      {"measurement": "Average fold change, CDC2", "setting": "[2]", "result": "−4.668", "unit": "fold"},
      {"measurement": "Average fold change, CDC25B", "setting": "[2]", "result": "−3.629", "unit": "fold"},
      {"measurement": "Average fold change, CDK4", "setting": "[2]", "result": "−2.59", "unit": "fold"},
      {"measurement": "Average fold change, CSK", "setting": "[2]", "result": "−3.871", "unit": "fold"},
      {"measurement": "Average fold change, E2F1", "setting": "[2]", "result": "−3.634", "unit": "fold"},
      {"measurement": "Average fold change, EGR1", "setting": "[2]", "result": 2.27, "unit": "fold"},
      {"measurement": "Average fold change, ETV6", "setting": "[2]", "result": "−4.643", "unit": "fold"},
      {"measurement": "Average fold change, FOS", "setting": "[2]", "result": 5.569, "unit": "fold"},
      {"measurement": "Average fold change, HDAC1", "setting": "[2]", "result": "−2.887", "unit": "fold"},
      {"measurement": "Average fold change, HRAS", "setting": "[2]", "result": "−3.277", "unit": "fold"},
      {"measurement": "Average fold change, IL8", "setting": "[2]", "result": 14.77, "unit": "fold"},
      {"measurement": "Average fold change, JUN", "setting": "[2]", "result": 5.625, "unit": "fold"},
      {"measurement": "Average fold change, MSH2", "setting": "[2]", "result": "−4.367", "unit": "fold"},
      {"measurement": "Average fold change, MSH6", "setting": "[2]", "result": "−4.242", "unit": "fold"},
      {"measurement": "Average fold change, MYB", "setting": "[2]", "result": "−9.647", "unit": "fold"},
      {"measurement": "Average fold change, MYBL2", "setting": "[2]", "result": "−2.794", "unit": "fold"},
      {"measurement": "Average fold change, MYC", "setting": "[2]", "result": "−3.287", "unit": "fold"},
      {"measurement": "Average fold change, PCNA", "setting": "[2]", "result": "−3.166", "unit": "fold"},
      {"measurement": "Average fold change, RAD54L", "setting": "[2]", "result": "−3.029", "unit": "fold"},
      {"measurement": "Average fold change, SERPINE1", "setting": "[2]", "result": 5.734, "unit": "fold"},
      {"measurement": "Average fold change, SPI1", "setting": "[2]", "result": "−2.522", "unit": "fold"},
      {"measurement": "Average fold change, SYK", "setting": "[2]", "result": "−3.84", "unit": "fold"},
      {"measurement": "Average fold change, TFDP1", "setting": "[2]", "result": "−4.261", "unit": "fold"},
      {"measurement": "Average fold change, TFRC", "setting": "[2]", "result": "−3.192", "unit": "fold"},
      {"measurement": "Average fold change, TOP2A", "setting": "[2]", "result": "−6.321", "unit": "fold"},
      {"measurement": "Average fold change, TUBB", "setting": "[2]", "result": "−3.724", "unit": "fold"},
      {"measurement": "Average fold change, TYMS", "setting": "[2]", "result": "−3.966", "unit": "fold"},
      {"measurement": "Average fold change, XPC", "setting": "[2]", "result": "−3.045", "unit": "fold"},
      {"measurement": "Average fold change, XRCC5", "setting": "[2]", "result": "−2.834", "unit": "fold"}
    ]}
  ]
}
